The target of the assay is human Nav1.7 (Homo sapiens (Human), UniProt Q15858). Briefly: FLIPR sodium dye assay (CoroNa Green AM Na+ dye, primary fluorescence assay). To be noted: recombinant Nav1.7/HEK293 cells. The format is cell-based. The method, boiled down: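 HEK293 cells stably expressing human Nav1.7 α subunit (no β/γ subunits), loaded with 5 μM CoroNa Green Na+ dye in HEPES-buffered Hanks-type saline, pH 7.3. Na+ influx stimulated by 100 μM veratridine plus 10 μg/mL Leiurus scorpion venom; compounds tested at 20 μM down to 0.001 μM (10 points, 0.2% DMSO).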
Chain of human Nav1.7 (Q15858 other isoform, or with tags, fused parts or gaps): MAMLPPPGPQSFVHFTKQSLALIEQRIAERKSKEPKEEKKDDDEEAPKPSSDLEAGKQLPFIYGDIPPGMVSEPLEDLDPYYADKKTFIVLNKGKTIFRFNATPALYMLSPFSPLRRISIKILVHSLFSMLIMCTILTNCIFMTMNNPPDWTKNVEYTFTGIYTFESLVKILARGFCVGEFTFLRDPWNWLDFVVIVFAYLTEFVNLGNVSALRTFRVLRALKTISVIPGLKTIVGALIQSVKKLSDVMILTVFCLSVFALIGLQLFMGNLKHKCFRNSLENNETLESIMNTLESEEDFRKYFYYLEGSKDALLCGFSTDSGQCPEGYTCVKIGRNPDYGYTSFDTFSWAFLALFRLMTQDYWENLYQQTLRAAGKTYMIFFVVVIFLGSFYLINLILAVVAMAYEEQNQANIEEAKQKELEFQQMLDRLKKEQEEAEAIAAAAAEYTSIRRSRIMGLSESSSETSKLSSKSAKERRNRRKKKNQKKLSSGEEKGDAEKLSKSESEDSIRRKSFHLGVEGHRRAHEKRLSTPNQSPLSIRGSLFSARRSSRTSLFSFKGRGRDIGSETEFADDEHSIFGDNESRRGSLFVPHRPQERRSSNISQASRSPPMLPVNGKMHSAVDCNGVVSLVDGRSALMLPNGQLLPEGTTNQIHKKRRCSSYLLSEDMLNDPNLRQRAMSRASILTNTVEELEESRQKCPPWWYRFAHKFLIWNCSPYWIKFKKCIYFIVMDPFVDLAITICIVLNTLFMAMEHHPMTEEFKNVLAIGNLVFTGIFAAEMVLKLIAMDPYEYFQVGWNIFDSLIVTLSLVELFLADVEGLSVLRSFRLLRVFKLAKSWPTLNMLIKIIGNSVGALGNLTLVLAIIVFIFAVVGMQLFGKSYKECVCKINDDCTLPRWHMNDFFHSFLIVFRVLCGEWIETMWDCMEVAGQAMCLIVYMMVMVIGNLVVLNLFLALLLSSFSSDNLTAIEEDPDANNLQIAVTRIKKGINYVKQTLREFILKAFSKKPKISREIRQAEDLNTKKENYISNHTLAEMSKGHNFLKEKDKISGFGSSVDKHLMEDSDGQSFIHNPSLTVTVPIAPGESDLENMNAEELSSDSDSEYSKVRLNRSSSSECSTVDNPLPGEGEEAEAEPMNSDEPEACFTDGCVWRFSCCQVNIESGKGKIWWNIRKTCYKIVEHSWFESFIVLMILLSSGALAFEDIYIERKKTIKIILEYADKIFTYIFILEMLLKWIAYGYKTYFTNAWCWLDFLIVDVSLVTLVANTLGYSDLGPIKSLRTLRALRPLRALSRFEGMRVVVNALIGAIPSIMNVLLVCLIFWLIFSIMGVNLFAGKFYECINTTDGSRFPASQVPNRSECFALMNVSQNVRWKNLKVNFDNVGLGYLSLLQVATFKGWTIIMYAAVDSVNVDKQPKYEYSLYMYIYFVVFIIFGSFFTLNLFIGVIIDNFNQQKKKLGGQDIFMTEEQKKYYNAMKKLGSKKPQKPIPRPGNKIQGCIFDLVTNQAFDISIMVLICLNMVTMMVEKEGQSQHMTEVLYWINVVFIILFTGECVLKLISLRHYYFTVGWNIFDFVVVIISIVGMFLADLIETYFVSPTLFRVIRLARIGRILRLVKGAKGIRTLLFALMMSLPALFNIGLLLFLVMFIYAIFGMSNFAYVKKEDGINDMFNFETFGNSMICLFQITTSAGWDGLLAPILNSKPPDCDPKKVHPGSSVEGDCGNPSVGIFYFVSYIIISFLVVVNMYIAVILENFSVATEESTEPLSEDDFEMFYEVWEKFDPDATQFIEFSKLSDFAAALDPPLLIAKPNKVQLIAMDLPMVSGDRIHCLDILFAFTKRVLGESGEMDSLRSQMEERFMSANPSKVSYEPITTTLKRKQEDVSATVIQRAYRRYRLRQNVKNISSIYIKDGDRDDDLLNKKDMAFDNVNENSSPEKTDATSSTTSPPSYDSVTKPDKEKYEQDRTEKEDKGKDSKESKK
For the compound `CC(C)(C)OC(=O)NC1CCN(Cc2cc(C(F)(F)F)ccc2Oc2ccc(-c3cccc(C(N)=O)n3)cc2)C1` (centres unmarked) [compound 47, tert-butyl (1-(2-(4-(6-carbamoylpyridin-2-yl)phenoxy)-5-(trifluoromethyl)-benzyl)pyrrolidin-3-yl)carbamate], the IC50 is 0.949 ± 0.168 µM.
Take `NC(=O)c1cccc(-c2ccc(Oc3ccc(C(F)(F)F)cc3-c3cccnc3)cc2)n1` [compound 29, 6-(4-(2-(pyridin-3-yl)-4-(trifluoromethyl)phenoxy)phenyl) picolinamide]: the IC50 was found to be 0.117 ± 0.036 µM.
Turning to `CCN(CCO)Cc1cc(C(F)(F)F)ccc1Oc1ccc(-c2cccc(C(N)=O)n2)cc1` [compound 119, 6-(4-(2-((ethyl(2-hydroxyethyl)amino)methyl)-4-(trifluoromethyl)phenoxy)phenyl) picolinamide], the IC50 was 0.59 ± 0.092 µM.
On to `OC[C@@H](O)c1cccc(-c2ccc(Oc3ccc(F)cc3C(O)C(F)(F)F)cc2)n1` (stereo partly drawn) [compound 156, (1S)-1-(6-(4-(4-fluoro-2-(2,2,2-trifluoro-1-hydroxyethyl)-phenoxy)phenyl)pyridin-2-yl)ethane-1,2-diol], for which the IC50 is 1.29 ± 0.182 µM.
Take `NC(=O)c1cccc(-c2ccc(Oc3ccc(F)cc3)c(-c3nn[nH]n3)c2)n1` [compound 101, 6-(4-(4-fluorophenoxy)-3-(2H-tetrazol-5-yl)phenyl)picolinamide]: the IC50 worked out at 1.83 ± 0.383 µM.
For the compound `NC(=O)c1cccc(-c2ccc(Oc3ccc(C(F)(F)F)cc3CNCCN3CCNC3=O)cc2)n1` [compound 34, 6-(4-(2-(((2-(2-oxoimidazolidin-1-yl)ethyl)amino)methyl)-4-(trifluoromethyl)phenoxy)phenyl) picolinamide], the IC50 stood at 1.77 ± 0.57 µM.
The figure for `N#CC(N)c1cc(C(F)(F)F)ccc1Oc1ccc(-c2cccc(C(N)=O)n2)cc1` (centres unmarked) [compound 145, 6-(4-(2-(amino(cyano)methyl)-4-(trifluoromethyl)phenoxy)phenyl) picolinamide] is 3.34 ± 0.452 µM; for `CCN(CC)C(C(N)=O)c1cc(C(F)(F)F)ccc1Oc1ccc(-c2cccc(C(N)=O)n2)cc1` (centres unmarked) [compound 85, 6-(4-(2-(2-amino-1-(diethylamino)-2-oxoethyl)-4-(trifluoromethyl)phenoxy)phenyl) picolinamide] it is 0.561 ± 0.024 µM; for `NC(=O)c1cccc(-c2ccc(Oc3ccc(C(F)(F)F)cc3C(C(=O)N3CCCC3)N3CCCC3)cc2)n1` (centres unmarked) [compound 111, 6-(4-(2-(2-oxo-1,2-di(pyrrolidin-1-yl)ethyl)-4-(trifluoromethyl)phenoxy)phenyl) picolinamide] it is 6.59 ± 0.321 µM.
Turning to `NC(=O)c1cccc(-c2ccc(Oc3ccc(C(F)(F)F)cc3CNC3CCNC3)cc2)n1` (centres unmarked) [compound 61, 6-(4-(2-((pyrrolidin-3-ylamino)methyl)-4-(trifluoromethyl)phenoxy)phenyl) picolinamide], the IC50 was determined as 2.04 ± 0.06 µM.
For `NCC(O)c1cc(C(F)(F)F)ccc1Oc1ccc(-c2cccc(C(N)=O)n2)cc1` (centres unmarked) [compound 64, 6-(4-(2-(2-amino-1-hydroxy-ethyl)-4-(trifluoromethyl)-phenoxy)phenyl)picolinamide], the IC50 was determined as 2.14 ± 0.199 µM.
For `OC[C@@H](O)c1cccc(-c2ccc(Oc3ccc(C(F)(F)F)cc3CN3CC[C@H](O)C3)cc2)n1` [compound 75, (S)-1-(6-(4-(2-(((S)-3-hydroxypyrrolidin-1-yl)methyl)-4-(trifluoromethyl)phenoxy)-phenyl)pyridin-2-yl)ethane-1,2-diol] the value was 0.972 ± 0.114 µM; for `CN(CCO)Cc1cc(C(F)(F)F)ccc1Oc1ccc(-c2cccc(C(N)=O)n2)cc1` [compound 52, 6-(4-(2-(((2-hydroxyethyl)-(methyl)amino)methyl)-4-(trifluoromethyl)phenoxy)phenyl) picolinamide], 1.1 ± 0.107 µM.
Turning to `N#Cc1ccc(Oc2ccc(-c3cccc(C(N)=O)n3)cc2)c(-c2ccsc2)c1` [compound 19, 6-(4-(4-cyano-2-(thiophen-3-yl)phenoxy)phenyl)picolinamide], the IC50 was determined as 0.337 ± 0.006 µM.
The figure for `NC(=O)c1cccc(-c2ccc(Oc3ccc(C(F)(F)F)cc3C(C(=O)N3CCCC3)N3CCNC(=O)C3)cc2)n1` (centres unmarked) [compound 112, 6-(4-(2-(2-oxo-1-(3-oxopiperazin-1-yl)-2-(pyrrolidin-1-yl)ethyl)-4-(trifluoromethyl)phenoxy)phenyl) picolinamide] is more than 20 µM.
As to `NC(=O)c1cccc(-c2ccc(Oc3ccc(C(F)(F)F)cc3CN3CCC3)cc2)n1` [compound 50, 6-(4-(2-(azetidin-1-ylmethyl)-4-(trifluoromethyl)phenoxy)phenyl) picolinamide], the IC50 stood at 0.768 ± 0.051 µM.
With `NC(=O)c1cccc(-c2ccc(Oc3ccc(F)cc3)c(COc3ccc(F)cc3)c2)n1` [compound 104, 6-(4-(4-fluorophenoxy)-3-((4-fluorophenoxy)methyl)phenyl) picolinamide], the IC50 is more than 20 µM.

Usually IC50 stands for the concentration at which inhibition is half-maximal.

(Values after US10005768B2, “Carboxamide derivatives and use thereof” (Purdue Pharma L.P., priority 2013, dated 2018).)
